Reference: ChEMBL document CHEMBL4699566, “Pharmacophore modeling, design, and synthesis of potent antihypertensives, oxazolo/thiazolo-[3,2-a]-pyrimidin-3(2H)-one, and 1,5-dihydroimidazo-[1,2-a]-pyrimidin-3(2H)-one derivatives: A pilot trial” (2020)

Assays:
Format in all cases: functional
[1] = tested on: Rattus norvegicus; experiment: Antihypertensive activity in spontaneously hypertensive rat assessed as reduction in mean arterial blood pressure at 1.5 mg/kg, po measured after 6 hrs
[2] = tested on: Rattus norvegicus; experiment: Antihypertensive activity in spontaneously hypertensive rat assessed as reduction in mean arterial blood pressure at 1.5 mg/kg, po measured after 12 hrs
[3] = tested on: Rattus norvegicus; experiment: Antihypertensive activity in spontaneously hypertensive rat assessed as reduction in mean arterial blood pressure at 3 mg/kg, po measured after 6 hrs
[4] = tested on: Rattus norvegicus; experiment: Antihypertensive activity in spontaneously hypertensive rat assessed as reduction in mean arterial blood pressure at 3 mg/kg, po measured after 12 hrs
[5] = tested on: Rattus norvegicus; experiment: Antihypertensive activity in spontaneously hypertensive rat assessed as reduction in mean arterial blood pressure at 3 mg/kg, po measured after 6 hrs relative to nifedipine; design: scale not given: the % may be the effect or the level left
[6] = tested on: Rattus norvegicus; experiment: Antihypertensive activity in spontaneously hypertensive rat assessed as reduction in mean arterial blood pressure at 1.5 mg/kg, po measured after 6 hrs relative to nifedipine; design: scale not given: the % may be the effect or the level left
[7] = tested on: Rattus norvegicus; experiment: Antihypertensive activity in spontaneously hypertensive rat assessed as reduction in mean arterial blood pressure at 1.5 mg/kg, po measured after 12 hrs relative to nifedipine; design: scale not given: the % may be the effect or the level left
[8] = tested on: Rattus norvegicus; experiment: Antihypertensive activity in spontaneously hypertensive rat assessed as reduction in mean arterial blood pressure at 3 mg/kg, po measured after 12 hrs relative to nifedipine; design: scale not given: the % may be the effect or the level left

SMILES	Activity [1] [mmHg]	Activity [2] [mmHg]	Activity [3] [mmHg]	Activity [4] [mmHg]	Activity [5] [%]	Activity [6] [%]	Activity [7] [%]	Activity [8] [%]
CCOC(=O)C1=C(C)N=C2OC(C)C(=O)N2C1c1cccc([N+](=O)[O-])c1 (centres undefined)	2.01	4.1	8.19	15.16				
CCOC(=O)C1=C(C)N=C2OC(C)C(=O)N2C1c1ccc([N+](=O)[O-])cc1 (centres undefined)	1.8	2.59	7.22	12.97				
CCOC(=O)C1=C(C)N=C2NC(C)C(=O)N2C1c1ccccc1 (centres undefined)	5.96	12.39	18.1	25.38	95.46	79.78	92.95	92.02
CCOC(=O)C1=C(C)N=C2OC(C)C(=O)N2C1c1ccccc1 (centres undefined)	1.12	1.82	6.04	10.9				
CCOC(=O)C1=C(C)N=C2SC(C)C(=O)N2C1c1ccc(C)c(C)c1 (centres undefined)	1.62	2.2	5.76	8.24				
CCOC(=O)C1=C(C)N=C2NC(C)C(=O)N2C1c1cccc(C)c1 (centres undefined)	5.5	11.51	18	24.65	95.46	79.78	92.95	92.02
COC(=O)C1=C(C)NC(C)=C(C(=O)OC)C1c1ccccc1[N+](=O)[O-] [NIFEDIPINE]	7.47	13.33	18.96	27.58				
CCOC(=O)C1=C(C)N=C2SC(C)C(=O)N2C1c1ccccc1O (centres undefined)	0.58	1.29	4.47	9.18				
CCOC(=O)C1=C(C)N=C2SC(C)C(=O)N2C1c1cccc(Cl)c1 (centres undefined)	1.16	1.41	5.37	7.2				
